Laboratory results from PMC4138103 (PLoS ONE, 2014).
Where “and” joins values, the source holds several entries; their conditions need not be identical. Equal entries are not always repeated.

Tested on: Sprague-Dawley rats
Experiment: Retinoid analyses in liver, serum and kidney
Format: in vivo, Rattus norvegicus
Set-up: key to Dose response, Liver Retinol: D: significant dose response (for results see Table 2 in the text); T: significant trend; key to Kidney Retinyl esters, Dose response / Liver All-trans RA, Dose response / Kidney All-trans RA, Dose response / Serum Retinol, Dose response: D: significant dose response (for results, see Table 2); T: significant trend
Experimental: Retinoids in liver, serum, and kidney were analyzed according to Schmidt et al.. The polar retinoids 9-cis-retinoic acid (9-cis-RA), 13-cis-retinoic acid (13-cis-RA), 13-cis-4-oxo-retinoic acid (13-cis-4-o-RA), 9-cis-4-oxo-13,14-dihydro-retinoic acid (9-cis-4-o-13,14-dh-RA), all-trans retinoic acid (all-trans RA) and the apolar retinoids retinol and retinyl palmitate were extracted by a single liquid-extraction, separated from each other via solid-phase extraction using an aminopropyl phase, and then injected onto two different HPLC systems that were coupled with UV detection. […] The limits of detection (LOD) for all-trans RA and 9c-4o-13,14-dh-RA were 0.7 and 1.0 pmol/g tissue, and 0.3 and 0.6 pmol/ml serum, respectively. Retinol and retinyl palmitate were separated on a J'sphere ODS-H80 (4.6×150 mm, 4 µm particle size) obtained from YMC (Schermbeck, Germany), and were detected at 325 nm. The LOD for retinol and retinyl palmitate were 5.6 and 5.5 pmol/g tissue, and 4.2 and 4.2 pmol/ml serum, respectively.
Data were also analyzed using the BMD method, which is based on dose-response modeling of the full data set using a nested family of exponential and Hill models. The analyses were done on data of males and females combined, using sex as a covariate. […] In that case, different Critical Effect Doses (CEDs) and CEDs at the lowest bound of the confidence interval (CED-L) were generated for each sex. If no difference between sexes is detected, a CED and CED-Ls for the combined data is generated. However, this was also done if the curve fits are close, and separate analyses for males and females were then performed manually. CEDs and CED-Ls were calculated at the predefined Critical Effect Size (CES) of 5% (EFSA standard) or 10%.

[1] = females, CES 5%, total dose based
[2] = females, CES 10%, total dose based
[3] = females, adipose tissue concentration based
[4] = males, total dose 0-1700 mg/kg bw
[5] = males, total dose 3 mg/kg bw, group mean, N=5
[6] = males, total dose 10 mg/kg bw, group mean, N=5
[7] = males, total dose 30 mg/kg bw, group mean, N=5

For `Clc1cc(Cl)c(-c2cc(Cl)c(Cl)c(Cl)c2Cl)cc1Cl` [PCB 180, 2,2′,3′,4,4′,5,5′-heptachlorobiphenyl], which “Kidney all-trans RA amount, CED-L” value [1] is on record?
Its value is 319 mg/kg bw.

What about the “Kidney all-trans RA concentration, CED” value [1] of the same compound?
The value was 457 mg/kg bw.

And the “Kidney all-trans RA concentration, CED-L” value [1]?
The value was 321 mg/kg bw.

And the “Kidney retinol amount, CED” value [1]?
The value was 355 mg/kg bw.

And the “Kidney retinol amount, CED-L” value [1]?
Its value is 221 mg/kg bw.

And the “Kidney retinol concentration, CED” value [1]?
The value was 335 mg/kg bw.

And the “Kidney retinol concentration, CED-L” value [1]?
The value was 216 mg/kg bw.

What about the “Liver 9c-4o-13,14-dh-RA amount, CED” value [1] of the same compound?
Its value is 13.1 mg/kg bw.

What about the “Liver 9c-4o-13,14-dh-RA amount, CED-L” value [1] of the same compound?
The value was 8.29 mg/kg bw.

And the “Liver 9c-4o-13,14-dh-RA conc., CED” value [1]?
Its value is 12 mg/kg bw and 12.2 mg/kg bw.

And the “Liver 9c-4o-13,14-dh-RA conc., CED-L” value [1]?
The value was 8.77 mg/kg bw.

What about the “Liver retinol concentration, CED” value [1] of the same compound?
The value was 156 mg/kg bw.

What about the “Liver retinol concentration, CED-L” value [1] of the same compound?
The value was 119 mg/kg bw.

What about the “Liver retinyl esters amount, CED” value [1] of the same compound?
Its value is 254 mg/kg bw.

And the “Liver retinyl esters amount, CED-L” value [1]?
The value was 189 mg/kg bw.

And the “Liver retinyl esters concentration, CED” value [1]?
Its value is 122 mg/kg bw.

What about the “Liver retinyl esters concentration, CED-L” value [1] of the same compound?
The value was 104 mg/kg bw.

And the “Serum retinol concentration, CED” value [1]?
The value was 400 mg/kg bw.

What about the “Serum retinol concentration, CED-L” value [1] of the same compound?
The value was 242 mg/kg bw.

And the “Kidney all-trans RA amount, CED” value [2]?
Its value is 965 mg/kg bw.

What about the “Kidney all-trans RA amount, CED-L” value [2] of the same compound?
Its value is 625 mg/kg bw.

What about the “Kidney all-trans RA concentration, CED” value [2] of the same compound?
The value was 892 mg/kg bw.

What about the “Kidney all-trans RA concentration, CED-L” value [2] of the same compound?
Its value is 626 mg/kg bw.

What about the “Kidney retinol amount, CED” value [2] of the same compound?
The value was 694 mg/kg bw.

What about the “Kidney retinol amount, CED-L” value [2] of the same compound?
Its value is 431 mg/kg bw.

What about the “Kidney retinol concentration, CED” value [2] of the same compound?
The value was 655 mg/kg bw.

And the “Kidney retinol concentration, CED-L” value [2]?
Its value is 421 mg/kg bw.

And the “Liver 9c-4o-13,14-dh-RA amount, CED” value [2]?
The value was 27.2 mg/kg bw.

What about the “Liver 9c-4o-13,14-dh-RA amount, CED-L” value [2] of the same compound?
Its value is 17.2 mg/kg bw.

And the “Liver 9c-4o-13,14-dh-RA conc., CED” value [2]?
Its value is 25.3 mg/kg bw.

And the “Liver 9c-4o-13,14-dh-RA conc., CED-L” value [2]?
Its value is 18.2 mg/kg bw.

What about the “Liver retinol concentration, CED” value [2] of the same compound?
Its value is 374 mg/kg bw.

What about the “Liver retinol concentration, CED-L” value [2] of the same compound?
The value was 263 mg/kg bw.

What about the “Liver retinyl esters amount, CED” value [2] of the same compound?
The value was 522 mg/kg bw.

And the “Liver retinyl esters amount, CED-L” value [2]?
Its value is 388 mg/kg bw.

And the “Liver retinyl esters concentration, CED” value [2]?
The value was 252 mg/kg bw.

What about the “Liver retinyl esters concentration, CED-L” value [2] of the same compound?
The value was 214 mg/kg bw.

And the “Serum retinol concentration, CED” value [2]?
The value was 781 mg/kg bw.

And the “Serum retinol concentration, CED-L” value [2]?
Its value is 474 mg/kg bw.

What about the “Kidney all-trans RA concentration, CED” value [3] of the same compound?
Its value is 2930 µg/g lipid.

What about the “Kidney retinol concentration, CED” value [3] of the same compound?
Its value is 2060 µg/g lipid.

What about the “Liver 9c-4o-13,14-dh-RA concentration, CED” value [3] of the same compound?
Its value is 55.5 µg/g lipid and 56 µg/g lipid.

And the “Liver retinol concentration, CED” value [3]?
The value was 1000 µg/g lipid.

And the “Liver retinyl ester concentration, CED” value [3]?
The value was 793 µg/g lipid.

And the “Serum retinol concentration, CED” value [3]?
Its value is 2470 µg/g lipid.

And the “Serum retinol concentration, Maximum response” value (females, controls vs high dose, fitted model)?
The value was 23.1%.

And the “Liver retinol concentration, max. decrease” value (males)?
The value was 47%.

And the “Liver retinyl ester concentration, max. decrease” value (males)?
Its value is 63%.

What about the “Dose response, Kidney Retinol” value [4] of the same compound?
The value was “D, T”.

And the “Dose response, Kidney Retinyl esters” value [4]?
Its value is “D, T”.

What about the “Dose response, Liver All-trans RA” value [4] of the same compound?
Its value is “D, T”.

What about the “Dose response, Liver Retinol” value [4] of the same compound?
The value was “D”.

What about the “Dose response, Liver Retinyl esters” value [4] of the same compound?
The value was “D, T”.

And the “Kidney Retinol, Dose response” value [4]?
Its value is “D, T”.

What about the “Kidney Retinyl esters, Dose response” value [4] of the same compound?
Its value is “D”.

What about the “Liver All-trans RA, Dose response” value [4] of the same compound?
The value was “D”.

And the “Liver Retinol, Dose response” value [4]?
The value was “D, T”.

What about the “Liver Retinyl esters, Dose response” value [4] of the same compound?
Its value is “D, T”.

What about the “Kidney All-trans RA” value [5] of the same compound?
Its value is 35.9 pmol.

And the “Kidney Retinol” value [5]?
Its value is 14.2 nmol.

And the “Kidney Retinyl esters” value [5]?
The value was 4.99 nmol.

What about the “Liver 9-cis-4o-13,14-dh RA” value [5] of the same compound?
The value was 218 pmol.

And the “Liver All-trans RA” value [5]?
The value was 544 pmol.

What about the “Liver Retinol” value [5] of the same compound?
The value was 0.28 µmol.

What about the “Liver Retinyl esters” value [5] of the same compound?
Its value is 11.5 µmol.

And the “Kidney All-trans RA” value [6]?
Its value is 36.9 pmol.

And the “Kidney Retinol” value [6]?
Its value is 17.6 nmol.

And the “Kidney Retinyl esters” value [6]?
The value was 8.73 nmol.

What about the “Liver All-trans RA” value [6] of the same compound?
The value was 632 pmol.

What about the “Liver Retinol” value [6] of the same compound?
Its value is 0.32 µmol.

And the “Liver Retinyl esters” value [6]?
Its value is 12.5 µmol.

What about the “Kidney All-trans RA” value (males, total dose 30 mg/kg bw) of the same compound?
The value was 31.8 pmol/g.

What about the “Kidney Retinol” value (males, total dose 30 mg/kg bw) of the same compound?
Its value is 16.9 nmol/g.

What about the “Kidney Retinyl esters” value (males, total dose 30 mg/kg bw) of the same compound?
The value was 7.83 nmol/g.

What about the “Liver All-trans RA” value (males, total dose 30 mg/kg bw) of the same compound?
The value was 44.5 pmol/g.

And the “Liver Retinol” value (males, total dose 30 mg/kg bw)?
Its value is 20.5 nmol/g.

What about the “Liver Retinyl esters” value (males, total dose 30 mg/kg bw) of the same compound?
The value was 0.77 µmol/g.

What about the “Serum Retinyl esters” value (males, total dose 30 mg/kg bw) of the same compound?
Its value is 46.5 pmol/mL.

What about the “Liver Retinyl esters” value (males, total dose 30 mg/kg bw, Liver) of the same compound?
The value was 46.5 pmol/mL.

And the “Liver Retinol” value (males, total dose 30 mg/kg bw, Liver, n=4)?
Its value is 1.65 pmol/mL.

What about the “Kidney All-trans RA” value [7] of the same compound?
Its value is 33.3 pmol.

What about the “Kidney Retinol” value [7] of the same compound?
The value was 17.5 nmol.

And the “Kidney Retinyl esters” value [7]?
The value was 8.12 nmol.

What about the “Liver All-trans RA” value [7] of the same compound?
Its value is 623 pmol.

And the “Liver Retinol” value [7]?
Its value is 0.29 µmol.

And the “Liver Retinyl esters” value [7]?
The value was 10.7 µmol.

What about the “Serum Retinol” value (males, total dose 30 mg/kg bw, n=4) of the same compound?
The value was 1.65 pmol/mL.

And the “Kidney All-trans RA” value (males, total dose 100 mg/kg bw)?
Its value is 34.8 pmol/g.

And the “Kidney Retinol” value (males, total dose 100 mg/kg bw)?
The value was 16.3 nmol/g.

And the “Kidney Retinyl esters” value (males, total dose 100 mg/kg bw)?
The value was 8.27 nmol/g.

And the “Liver All-trans RA” value (males, total dose 100 mg/kg bw)?
Its value is 44.4 pmol/g.

What about the “Liver Retinol” value (males, total dose 100 mg/kg bw) of the same compound?
Its value is 15.7 nmol/g.

And the “Liver Retinyl esters” value (males, total dose 100 mg/kg bw)?
Its value is 0.62 µmol/g.

And the “Serum Retinyl esters” value (males, total dose 100 mg/kg bw)?
Its value is 84.5 pmol/mL.
